Columns and labels:
HCT-116 = experiment: Cytotoxicity against human HCT-116 cells assessed as inhibition of cell growth incubated for 4 days by CCK-8 assay; format: functional, cell-based; conditions: HCT-116, 96 h
DU-145 = experiment: Cytotoxicity against human DU-145 cells assessed as inhibition of cell growth incubated for 4 days by CCK-8 assay; format: functional, cell-based; conditions: DU-145, 96 h

Compound | IC50 (HCT-116) [nM] | IC50 (DU-145) [nM]
C/C=C(/C)C(=O)OC[C@H]1c2c(c(OC(C)=O)c(C)c3c2OCO3)C[C@H]2[C@H]3C4=C(C[C@@H]([C@H](C#N)N12)N3C)C(=O)C(C)=C(OC)C4=O | 32 | 32
C/C=C(/C)C(=O)OC[C@H]1c2c(c(O)c(C)c3c2OCO3)C[C@H]2[C@H]3C4=C(C[C@@H]([C@H](C#N)N12)N3C)C(=O)C(C)=C(OC)C4=O | 82 | 50
COC1=C(C)C(=O)C2=C(C1=O)[C@@H]1[C@@H]3Cc4c(OC(C)=O)c(C)c5c(c4[C@H](CNC(=O)C(C)=O)N3[C@@H](C#N)[C@H](C2)N1C)OCO5 | 27 | 6
COC1=C(C)C(=O)C2=C(C1=O)[C@@H]1[C@@H]3CC4=C(C(=O)C(O)=C(C)C4=O)[C@H](CNC(=O)C(C)=O)N3[C@@H](C#N)[C@H](C2)N1C | 1200 | 680
C/C=C(/C)C(=O)OC[C@H]1c2c(c(O)c(C)c3c2OCO3)C[C@H]2CN(C)C[C@H](C#N)N21 | > 20000 | > 20000
COC1=C(C)C(=O)C2=C(C1=O)[C@@H]1[C@@H]3Cc4c(O)c(C)c5c(c4[C@H](CNC(=O)C(C)=O)N3[C@@H](C#N)[C@H](C2)N1C)OCO5 | 230 | 140
C/C=C(/C)C(=O)OC[C@H]1C2=C(C[C@H]3CN(C)C[C@H](C#N)N31)C(=O)C(C)=C(OC)C2=O | 2200 | 7300
C/C=C(/C)C(=O)OC[C@H]1C2=C(C[C@H]3[C@H]4C5=C(C[C@@H]([C@H](C#N)N13)N4C)C(=O)C(C)=C(OC)C5=O)C(=O)C(C)=C(OC)C2=O [RENIERAMYCIN M] | 18 | 4
C/C=C(/C)C(=O)OC[C@H]1C2=C(C[C@H]3[C@H]4C5=C(C[C@@H]([C@H](C#N)N13)N4C)C(=O)C(C)=C(OC)C5=O)C(=O)C(C)=C(O)C2=O [RENIERAMYCIN S] | 160 | 72
COC1=C(C)C(=O)C2=C(C1=O)[C@@H]1[C@@H]3CC4=C(C(=O)C(OC)=C(C)C4=O)[C@H](CNC(=O)C(C)=O)N3[C@@H](C#N)[C@H](C2)N1C [SAFRAMYCIN A] | 20 | 8

From ChEMBL document CHEMBL5226378, “Transformation of Renieramycin M into Renieramycins T and S by Intramolecular Photoredox Reaction of 7-Methoxy-6-methyl-1,2,3,4-tetrahydroisoquinoline-5,8-dione Derivatives” (J Nat Prod, 2023)
